Results published in PubChem BioAssay AID1204 (EPA DSSTox, 2008).
Records with an inconclusive call do not appear. Calls of active or inactive are those of the source.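 The calls were made as follows: active = relative estrogen receptor binding affinity above 1E-5, where estradiol scores 100; inconclusive = weak binder, under half inhibition at top dose, or affinity below 1E-5; inactive = no binding seen, affinity zero.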

Test system: estrogen receptor (rat uterine cytosol)
Assay: DSSTox (NCTRER) National Center for Toxicological Research Estrogen Receptor Binding Database;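 as to relative binding affinity: ratio of estradiol IC50 over compound IC50 times 100 so estradiol equals 100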
Settings: rat uterine cytosol ER competitive binding, RBA; for relative binding affinity: stronger effect = higher value
Text: Researchers within FDA's National Center for Toxicological Research (NCTR) generated a database of experimental estrogen receptor binding results for the express purpose of developing improved QSAR models to predict ER binding affinities.The NCTR ER database is a structurally diverse set of natural, synthetic, and environmental estrogens covering most known estrogenic classes and spanning a wide range of biological activity. It represents the largest published ER binding database of same-assay results generated in a single laboratory. […] Information on the percent purity and purchasing source for all chemicals are not included in the DSSTox SDF, but can be obtained from the original NCTR ER Source database and Main Citations listed below. The main citation (Fang et al., 2001) surveys the NCTR ER database from a chemical class based, structure-activity relationship (SAR) perspective. Qualitative SAR characteristics of the NCTR ER database are discussed and a set of general hierarchical rules for identifying potential estrogens are presented. The DSSTox NCTRER SDF augments the original NCTR ER database with chemical class and SAR information abstracted from Fang et al. (2001). The DSSTox SDF file supplements the measured ER relative binding affinity for each chemical (ER_RBA) with chemical class assignment to one of 6 major estrogenic classes further divided into 20 subclasses (ChemClass_ERB), along with a qualitative activity measure, ActivityCategory_ER_RBA. A brief narrative SAR rationale pertaining to ER RBA patterns observed by Fang et al. (2001) for each of the 20 subclasses within the database are provided in the field, ActivityCategory_Rationale_ChemClass_ERB. The original NCTR ER database, from which the expanded DSSTox NCTRER was formed, is contained within a larger Endocrine Disruptor Knowledge Base (EDKB) accessible from the FDA Source Website. That website provides online access to a relational database comprised of in vitro and in vivo experimental data for about 2000 natural and synthetic compounds, much of this extracted from the literature and representing testing in many laboratories. Data are included for biological assays that measure estrogenic and androgenic activity. Estrogenic endpoints include in vitro assays for estrogen receptor competitive binding affinity, cell proliferation, and reporter-gene assays, and in vivo assays for uterotrophic activity (i.e., uterine weight gain and vaginal cornification). The database also contains a bibliography of over 1200 citations, many of which include abstracts.
Estrogen receptor relative binding affinity is determined using a competitive receptor binding assay as described in NCTRER Ref (Blair et al., 2000). Briefly, a chemical competes with radiolabeled E2 (i.e., estradiol) for binding to the ER in rat uterine cytosol and the concentration of chemical that causes 50% inhibition of E2 binding (i.e., IC50) is measured. The ER_RBA is calculated by dividing the IC50 of E2 (9X10-10M) by the IC50 of the competitor and multiplying by 100 (E2 RBA = 100). The validated assay tested 1nM E2 with concentrations of competitor ranging from 1nM to 1mM. The larger the ER_RBA values, the greater the binding affinity; ER_RBA > 100 means compound has greater binding affinity than natural ER ligand, E2. […] Activity Score is mapping of LOG_ER_RBA values (ER-RBA>1E-5), spanning activity range [MIN, MAX] onto Integer 20-100 Activity range, where 100 is highest potency and 20 is lowest active potency. If Activity Outcome is "active": Activity Score = 80 * INTEGER[(LOG_ER_RBA - MIN)/(MAX […] MIN)]. If Activity Outcome is "inconclusive" (i.e., slight binder): Activity Score = 5.

[1] = ChemClass_ERB: Phenols Parabens
[2] = ChemClass_ERB: Steroids Without aromatic A ring
[3] = ChemClass_ERB: Phytoestrogens Chalconoids
[4] = ChemClass_ERB: Phytoestrogens Flavanones
[5] = ChemClass_ERB: Diphenylmethanes Benzophenones
[6] = ChemClass_ERB: Phytoestrogens Flavones
[7] = ChemClass_ERB: Phytoestrogens Isoflavones
[8] = ChemClass_ERB: Diphenylmethanes Diphenolalkanes
[9] = ChemClass_ERB: DES Hexestrol derivatives
[10] = ChemClass_ERB: Diphenylmethanes DDTs
[11] = ChemClass_ERB: Steroids With aromatic A ring

In the case of `c1ccc2c(c1)OCCOCCOc1ccccc1OCCOCCO2`, the outcome (ChemClass_ERB: Misc) is reported as “inactive”.

`CCOC(=O)/C=C/c1ccccc1` was tested, and the outcome (ChemClass_ERB: Misc) was “inactive”.

In the case of `CCOC(=O)c1ccc(O)cc1`, the relative binding affinity [1] is reported as 0.0006%.

`C[C@@H]1C[C@H]2[C@@H]3CCC4=CC(=O)C=C[C@]4(C)[C@@]3(F)[C@@H](O)C[C@]2(C)[C@@]1(O)C(=O)CO` was tested, and the outcome [2] was “inactive”.

`O=C(/C=C/c1ccc(O)cc1)c1ccccc1` showed a relative binding affinity [3] of 0.00281%.

`Cc1ccc2c(C)cccc2c1` was tested, and the outcome (ChemClass_ERB: Misc) was “inactive”.

For `O=P(Oc1ccccc1)(Oc1ccccc1)Oc1ccccc1`, the outcome (ChemClass_ERB: Misc) was “inactive”.

`O=C1CC(c2ccccc2)Oc2ccc(O)cc21` (stereo not given) was tested, and the relative binding affinity [4] was 0.00089%.

`C[C@]12CCC(=O)C=C1CC[C@@H]1[C@@H]2[C@@H](O)C[C@]2(C=O)[C@@H](C(=O)CO)CC[C@@H]12` was tested, and the outcome [2] was “inactive”.

`O=C(c1ccccc1O)c1ccccc1O` was tested, and the outcome [5] was “inactive”.

With `O=c1cc(-c2ccccc2)oc2cc(O)cc(O)c12` the outcome [6] was “inactive”.

For `CCCCC(CC)COC(=O)CCCCC(=O)OCC(CC)CCCC` (stereo not given), the outcome (ChemClass_ERB: Misc) was “inactive”.

`Nc1nc2ncc(CNc3ccc(C(=O)N[C@@H](CCC(=O)O)C(=O)O)cc3)nc2c(=O)[nH]1` was tested, and the outcome (ChemClass_ERB: Misc) was “inactive”.

For `CC/C(=C(/c1ccc(OCCN(C)C)cc1)c1cccc(O)c1)c1ccccc1`, the relative binding affinity (ChemClass_ERB: DES Triphenylethylenes) was 15.1%.

`Oc1ccc(-c2cc(Cl)ccc2Cl)cc1` gave a relative binding affinity (ChemClass_ERB: Biphenyls PCBs) of 0.0363%.

`CCCCCCCOc1ccc(O)cc1` was tested, and the relative binding affinity (ChemClass_ERB: Phenols Alkyloxy) was 0.00131%.

`O=c1c(O)c(-c2ccc(O)cc2O)oc2cc(O)cc(O)c12` was tested, and the relative binding affinity [6] was 0.00081%.

In the case of `CCCCCCO`, the outcome (ChemClass_ERB: Misc) is reported as “inactive”.

For `O=c1cc(-c2ccc(O)cc2)oc2ccc(O)cc12`, the relative binding affinity [6] was 0.151%.

`O=c1c(-c2ccc(O)cc2)coc2cc(O)c(O)cc12` was tested, and the outcome [7] was “inactive”.

`Oc1ccc(Cc2ccc(O)cc2)cc1` was tested, and the relative binding affinity [8] was 0.00095%.

`CCC(c1ccc(C)cc1)C(CC)c1ccc(O)cc1` (stereo not given) gave a relative binding affinity [9] of 3.98%.

With `Nc1ccc(Oc2ccc(N)cc2)cc1` the outcome (ChemClass_ERB: Misc) was “inactive”.

With `COc1cc(O)c2c(=O)c(-c3ccc(O)cc3)coc2c1` the relative binding affinity [7] was 0.00181%.

`O=C(/C=C/c1ccccc1)c1ccc(O)cc1` was tested, and the relative binding affinity [3] was 0.0037%.

`CCc1c(-c2ccc(OC)cc2)c(=O)oc2cc(O)ccc12` was tested, and the relative binding affinity (ChemClass_ERB: Phytoestrogens Coumestans) was 0.891%.

Compound `Oc1ccc(C(=C(Cl)Cl)c2ccc(O)cc2)cc1` has a relative binding affinity [10] of 2.63%.

With `CC(C)(C)c1cc(Cc2cc(C(C)(C)C)c(O)c(C(C)(C)C)c2)cc(C(C)(C)C)c1O` the outcome [8] was “inactive”.

In the case of `Oc1ccc(-c2ccc(Cl)cc2)cc1`, the relative binding affinity (ChemClass_ERB: Biphenyls PCBs) is reported as 0.0066%.

Compound `CCCCCCCOC(=O)c1ccc(O)cc1` has a relative binding affinity [1] of 0.00812%.

`COc1nc(NC(C)C)nc(NC(C)C)n1` was tested, and the outcome (ChemClass_ERB: Misc) was “inactive”.

`O=C(CCc1ccc(O)cc1)c1c(O)cc(O)cc1O` was tested, and the relative binding affinity [3] was 0.069%.

`O=c1c(-c2ccc(O)c(O)c2)coc2cc(O)ccc12` gave a relative binding affinity [7] of 0.00446%.

In the case of `C[C@]12CC[C@@H]3c4ccc(O)cc4CC[C@H]3[C@@H]1CCC2=O`, the relative binding affinity [11] is reported as 7.24%.

With `O=S1OCC2C(CO1)C1(Cl)C(Cl)=C(Cl)C2(Cl)C1(Cl)Cl` (stereo not given) the outcome (ChemClass_ERB: Misc) was “inactive”.

`CCC(c1ccc(O)cc1)C(CC)c1ccc(OC)cc1` (stereo not given) showed a relative binding affinity [9] of 9.33%.

With `CC(=O)[C@H]1CC[C@H]2[C@@H]3CCC4=CC(=O)CC[C@]4(C)[C@H]3CC[C@]12C` the outcome [2] was “inactive”.

In the case of `Oc1ccc(Cl)cc1Cc1cc(Cl)ccc1O`, the relative binding affinity [8] is reported as 0.0035%.

With `Clc1ccc(-c2ccc(Cl)cc2Cl)c(Cl)c1` the outcome (ChemClass_ERB: Biphenyls PCBs) was “inactive”.

In the case of `Oc1ccc(C(c2ccc(O)cc2)C(Cl)(Cl)Cl)cc1`, the relative binding affinity [10] is reported as 0.251%.

In the case of `O=C1c2c(O)cc(O)cc2O[C@H](c2ccc(O)c(O)c2)[C@H]1O`, the outcome [4] is reported as “inactive”.

For `C[C@]12CC[C@H]3[C@@H](CCC4=CC(=O)CC[C@@]43C)[C@@H]1CC[C@@H]2O`, the outcome [2] was “inactive”.

`C=CC(C)(O)CC/C=C(\C)CCC=C(C)C` (stereo not given) was tested, and the outcome (ChemClass_ERB: Misc) was “inactive”.

`O=c1c(O)c(-c2cc(O)c(O)c(O)c2)oc2cc(O)cc(O)c12` was tested, and the relative binding affinity [6] was 0.00177%.

`C[C@H](Cc1ccc(O)c(O)c1)[C@H](C)Cc1ccc(O)c(O)c1` showed a relative binding affinity (ChemClass_ERB: Misc) of 0.0309%.

With `O=C(O)COc1ccc(Cl)cc1Cl` the outcome (ChemClass_ERB: Misc) was “inactive”.

Compound `C/C=C(/C(=C/C)c1ccc(O)cc1)c1ccc(O)cc1` has a relative binding affinity [9] of 37.1%.

For `CCCCOC(=O)c1ccc(N)cc1`, the outcome (ChemClass_ERB: Misc) was “inactive”.

`C(/C=C/c1ccccc1)=C\c1ccccc1` was tested, and the outcome (ChemClass_ERB: Misc) was “inactive”.

For `O=c1cc(-c2ccccc2)oc2cc(O)c(O)c(O)c12`, the relative binding affinity [6] was 0.0009%.

Work on `O=S1(=O)OC(c2ccc(O)cc2)(c2ccc(O)cc2)c2ccccc21` yielded a relative binding affinity [8] of 0.00056%.

In the case of `CCCCOC(=O)c1ccccc1C(=O)OCCCC`, the outcome (ChemClass_ERB: Misc) is reported as “inactive”.

`Oc1ccccc1-c1ccccc1` was tested, and the outcome (ChemClass_ERB: Biphenyls nonchlorinated) was “inactive”.

In the case of `Clc1c(Cl)c(Cl)c(Cl)c(Cl)c1Cl`, the outcome (ChemClass_ERB: Misc) is reported as “inactive”.

`CC[C@@H](c1ccc2cc(O)ccc2c1)C(C)(C)C(=O)O` was tested, and the relative binding affinity (ChemClass_ERB: Misc) was 0.955%.

In the case of `O=c1cc(-c2ccccc2)oc2ccccc12`, the outcome [6] is reported as “inactive”.

Work on `CCC(C)(c1ccc(O)cc1)c1ccc(O)cc1` yielded a relative binding affinity [8] of 0.0851%.

Work on `Oc1ccc(CCc2ccccc2)cc1` yielded a relative binding affinity [9] of 0.00204%.

In the case of `c1ccc2c(c1)Cc1cc3ccccc3cc1-2`, the outcome (ChemClass_ERB: Misc) is reported as “inactive”.

In the case of `C[C@@]12CCC[C@H]1[C@@H]1CCc3cc(O)ccc3[C@H]1CC2`, the relative binding affinity [11] is reported as 13.8%.

`O=S(=O)(O)c1ccc2c(N=Nc3ccc(S(=O)(=O)O)c4ccccc34)c(O)c(S(=O)(=O)O)cc2c1` was tested, and the outcome (ChemClass_ERB: Misc) was “inactive”.

In the case of `O=c1cc(-c2ccccc2)oc2cc(O)ccc12`, the outcome [6] is reported as “inactive”.

In the case of `Nc1ccc(Cc2ccc(N)cc2)cc1`, the outcome (ChemClass_ERB: Misc) is reported as “inactive”.

In the case of `C=CC1(C)OC(=O)N(c2cc(Cl)cc(Cl)c2)C1=O` (stereo not given), the outcome (ChemClass_ERB: Misc) is reported as “inactive”.

`NCCc1ccc(O)c(O)c1` was tested, and the outcome (ChemClass_ERB: Misc) was “inactive”.

For `CC/C(=C(/CC)c1ccc(OC)cc1)c1ccc(OC)cc1`, the relative binding affinity (ChemClass_ERB: DES Derivatives) was 0.056%.

`O=S(=O)(c1ccc(O)cc1)c1ccc(O)cc1` showed a relative binding affinity [5] of 0.00085%.

For `CCCCCCCCCc1ccc(O)cc1`, the relative binding affinity (ChemClass_ERB: Phenols Alkyl) was 0.0295%.

For `CC(C)COC(=O)c1ccccc1C(=O)OCC(C)C`, the outcome (ChemClass_ERB: Misc) was “inactive”.

In the case of `OCc1ccccc1`, the outcome (ChemClass_ERB: Misc) is reported as “inactive”.

With `Oc1ccc(-c2ccccc2)c(Cl)c1` the relative binding affinity (ChemClass_ERB: Biphenyls PCBs) was 0.00169%.

In the case of `O=C(OCc1ccccc1)c1ccc(O)cc1`, the relative binding affinity [1] is reported as 0.00288%.

For `COc1ccccc1-c1cc(=O)c2cc(O)ccc2o1`, the outcome [6] was “inactive”.

In the case of `CCc1cccc(C)c1N(C(=O)CCl)C(C)COC` (stereo not given), the outcome (ChemClass_ERB: Misc) is reported as “inactive”.
